Common to all, as to assay: RAR binding, competition with tritiated retinoid
One assay concerns the target T1, RARα (Homo sapiens, UniProt P10276).
T1 sequence (P10276 1-462): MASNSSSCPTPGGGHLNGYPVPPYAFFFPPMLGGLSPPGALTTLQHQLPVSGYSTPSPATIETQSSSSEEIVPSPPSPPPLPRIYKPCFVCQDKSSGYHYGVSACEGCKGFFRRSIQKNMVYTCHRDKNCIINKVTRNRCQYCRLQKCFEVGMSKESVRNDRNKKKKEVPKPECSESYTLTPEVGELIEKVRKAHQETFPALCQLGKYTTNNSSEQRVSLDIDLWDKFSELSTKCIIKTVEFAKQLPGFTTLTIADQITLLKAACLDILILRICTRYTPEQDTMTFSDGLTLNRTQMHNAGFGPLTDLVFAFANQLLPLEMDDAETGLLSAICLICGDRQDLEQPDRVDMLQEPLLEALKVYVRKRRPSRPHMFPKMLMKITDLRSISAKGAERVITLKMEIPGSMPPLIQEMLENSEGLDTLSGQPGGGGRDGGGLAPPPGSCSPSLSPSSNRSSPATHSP
The settings on record: read-out: RAR Binding alpha. From the text: (§1) In addition to the cotransfection data, the binding of selected compounds of the present invention to the RAR and RXR receptors was also investigated according to the methodology described in M. F., Boehm, et al., “Synthesis and Structure-Activity Relation-ships of Novel Retinoid X Receptor Selective Retinoids”, 37 J. Med. Chem., 2930 (1994); M. F. Boehm, et al., “Synthesis of High Specific Activity [^3H]-9-cis Retinoic Acid and Its Application for Identifying Retinoids with Unusual Binding Properties”, 37 J. Med. Chem., 408 (1994), and E. A. Allegretto, et al., “Characterization and Comparison of Hormone-Binding and Transactivation Properties of Retinoic Acid and Retinoid X Receptors Expressed in Mammalian Cells and Yeast”, 268 J. Biol. Chem., 22625 (1993), the disclosures of which are herein incorporated by reference.
(§2) Non-specific binding was defined as that binding remaining in the presence of 500 nM of the appropriate unlabelled compound. At the end of the incubation period, bound ligand was separated from free. The amount of bound tritiated retinoid was determined by liquid scintillation counting of an aliquot (700 μL) of the supernatant fluid or the hydroxylapatite pellet.
(§3) After correcting for non-specific binding, IC50 values were determined. The IC50 value is defined as the concentration of competing ligand needed to reduce specific binding by 50%. The IC50 value was determined graphically from a log-logit plot of the data. The Ki values were determined by application of the Cheng-Prussof equation to the IC50 values, the labeled ligand concentration and the Kd of the labeled ligand.

Another assay addresses T2, RARβ (Homo sapiens, UniProt P10826).
T2 sequence (P10826 1-455): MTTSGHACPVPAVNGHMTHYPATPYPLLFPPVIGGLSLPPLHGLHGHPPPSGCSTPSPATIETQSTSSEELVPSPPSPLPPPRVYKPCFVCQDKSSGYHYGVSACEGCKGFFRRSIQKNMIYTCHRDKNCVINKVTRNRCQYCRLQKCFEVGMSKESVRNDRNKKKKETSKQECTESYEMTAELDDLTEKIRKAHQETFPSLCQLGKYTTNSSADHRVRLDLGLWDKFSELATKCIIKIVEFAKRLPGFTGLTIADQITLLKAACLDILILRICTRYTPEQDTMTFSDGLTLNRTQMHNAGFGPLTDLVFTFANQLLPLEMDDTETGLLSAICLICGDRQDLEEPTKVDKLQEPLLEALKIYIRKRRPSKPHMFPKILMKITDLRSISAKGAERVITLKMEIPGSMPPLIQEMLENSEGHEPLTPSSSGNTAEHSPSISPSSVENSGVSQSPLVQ
The settings on record: read-out: RAR Binding beta.
Description: as §1, §2, §3

A further assay deals with T3, RARγ (Homo sapiens, UniProt P13631).
T3 sequence (P13631 1-454): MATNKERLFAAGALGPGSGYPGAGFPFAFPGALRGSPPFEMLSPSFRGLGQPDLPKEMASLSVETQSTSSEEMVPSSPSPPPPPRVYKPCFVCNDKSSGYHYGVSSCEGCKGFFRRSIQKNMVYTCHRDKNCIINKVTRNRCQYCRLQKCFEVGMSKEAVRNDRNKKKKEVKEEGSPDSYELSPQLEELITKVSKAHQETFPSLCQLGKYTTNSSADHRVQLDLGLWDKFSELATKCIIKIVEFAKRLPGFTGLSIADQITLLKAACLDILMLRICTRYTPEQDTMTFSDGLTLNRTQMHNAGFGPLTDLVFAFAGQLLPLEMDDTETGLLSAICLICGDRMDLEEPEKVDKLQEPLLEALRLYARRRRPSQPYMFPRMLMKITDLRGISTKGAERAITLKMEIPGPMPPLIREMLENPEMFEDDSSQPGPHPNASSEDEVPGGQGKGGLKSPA
Particulars: read-out: RAR Binding gamma.
Description: as §1, §2, §3

The structures appear in SMILES notation. Bounds are passed on as bounds.

As for `C/C(=C/C=C(F)/C(C)=C/C(=O)O)c1cc(C(C)(C)C)cc(C(C)(C)C)c1OCC(F)F` [Example 1, 7-[3,5-di-tert-butyl-2-(2,2-difluoroethoxy)-phenyl]4-fluoro-3-methyl-octa-2,4,6-trienoic acid], the results for the Ki at RARα and on RARβ were 1.15 µM and 6.63 µM, respectively.
The like results for `C/C(=C/C(F)=C/C(C)=C/C(=O)O)c1cc(C(C)(C)C)cc(C(C)(C)C)c1OCC(F)F` [Example 2, 7-[3,5-Di-tert-butyl-2-(2,2-difluoroethoxy)-phenyl]-5-fluoro-3-methyl-octa-2,4,6-trienoic acid] were, in that order, > 10 µM and 2.75 µM.
On to `CCCCOc1c(\C(C)=C/C=C/C(=C/C(=O)O)C(F)(F)F)cc(C(C)C)cc1C(C)C` [Example 3, (2Z,4E,6Z)-7-(2-Butoxy-3,5-diisopropylphenyl)-3-trifluoromethyl-octa-2,4,6-trienoic acid], for which the Ki at RARα, at RARβ and on RARγ was > 10 µM each time.
Consider `CCCCOc1c(\C(C)=C/C=C/C(=C\C(=O)O)C(F)(F)F)cc(C(C)C)cc1C(C)C` [Example 4, (2E,4E,6Z)-7-(2-Butoxy-3,5-diisopropylphenyl)-3-trifluoromethyl-octa-2,4,6-trienoic acid], for which the Ki on RARα, at RARβ and on RARγ was > 10 µM each time.
For the molecule `CCOc1c(\C(=C/C=C/C(C)=C/C(=O)O)C(F)(F)F)cc(C(C)(C)C)cc1C(C)(C)C` [Example 5, (2E,4E,6E)-3-methyl-7-(2-ethoxy-3,5-di-tert-butylphenyl)-8,8,8-trifluoroocta-2,4,6-trienoic acid], the Ki was > 10 µM on RARα, 7.25 µM at RARβ and > 10 µM at RARγ.
